Assay results reported in patent US20150099800A1, “NOVEL LIPASE INHIBITORS, REPORTER SUBSTRATES AND USES THEREOF” (Northeastern University, priority 2012, published 2015).
Like-named read-outs stand apart in the source and are kept apart here.

Legend:
[1] = Stability of FRET reporter substrates to uncatalyzed hydrolysis; type: physicochemical
Text: (§1) A convenient in vitro fluorometric esterase assay utilizing the BioTek Instruments Synergy™ HT Multi-Mode Microplate 96-well reader was developed that measured nanomolar concentrations of fluorescent reaction product.

hDAGLα [2] = target: T1, hDAGLα (Homo sapiens, UniProt Q9Y4D2); test: Evaluation of FRET reporter substrates for enzymatic hydrolysis; type: biochemical; design: V5; His; expressed in transfected cells; host or cells: HEK293T, transient; crude cell lysate or membrane preparation
T1 sequence (Q9Y4D2 1-1042): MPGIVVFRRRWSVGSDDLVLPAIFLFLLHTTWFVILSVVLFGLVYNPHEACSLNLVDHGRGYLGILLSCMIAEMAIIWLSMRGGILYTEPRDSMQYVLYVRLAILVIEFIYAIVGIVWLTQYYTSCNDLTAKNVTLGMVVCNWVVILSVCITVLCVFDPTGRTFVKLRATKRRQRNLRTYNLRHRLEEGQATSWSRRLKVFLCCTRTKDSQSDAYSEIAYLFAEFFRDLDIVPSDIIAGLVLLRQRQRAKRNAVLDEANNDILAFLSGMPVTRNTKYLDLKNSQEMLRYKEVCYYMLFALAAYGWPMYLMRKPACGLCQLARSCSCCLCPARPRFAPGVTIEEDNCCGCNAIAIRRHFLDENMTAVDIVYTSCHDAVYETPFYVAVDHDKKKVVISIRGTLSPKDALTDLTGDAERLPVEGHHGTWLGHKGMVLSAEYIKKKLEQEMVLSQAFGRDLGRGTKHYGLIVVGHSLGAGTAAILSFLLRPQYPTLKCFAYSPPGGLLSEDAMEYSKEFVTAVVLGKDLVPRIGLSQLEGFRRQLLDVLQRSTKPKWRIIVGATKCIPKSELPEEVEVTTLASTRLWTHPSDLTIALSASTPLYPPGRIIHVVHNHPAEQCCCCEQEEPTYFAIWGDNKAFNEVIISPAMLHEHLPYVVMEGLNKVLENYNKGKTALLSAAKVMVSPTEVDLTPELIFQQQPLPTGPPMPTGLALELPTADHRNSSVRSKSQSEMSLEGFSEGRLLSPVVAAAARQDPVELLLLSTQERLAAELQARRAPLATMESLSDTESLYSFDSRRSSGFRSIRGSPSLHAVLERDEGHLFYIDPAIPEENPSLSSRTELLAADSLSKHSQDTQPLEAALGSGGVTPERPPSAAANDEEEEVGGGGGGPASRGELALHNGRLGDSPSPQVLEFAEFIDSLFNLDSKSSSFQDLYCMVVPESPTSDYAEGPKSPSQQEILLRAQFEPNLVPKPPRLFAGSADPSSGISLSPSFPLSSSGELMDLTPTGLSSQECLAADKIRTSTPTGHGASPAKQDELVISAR
Text: Reporter compounds as substrates for hDAGLα activity with HEK293T cell lysates in the presence of 10% DMSO are shown. A) Pyrenyl analogs (17)-(19), (21), and (22) (EX 320 nm, EM 400 nm). B) NBD analog (20) (EX 485 nm, EM 535 nm).
as §1

[3] = system: Lipoprotein Lipase (Bacterial); type: biochemical, Pseudomonas sp.
[4] = target: T2, Pancreatic Lipase (Porcine) (Sus scrofa, UniProt P00591); type: biochemical; settings: read-out: Pancreatic Lipase (Porcine) inhibition at 10 μM (%)
T2 construct: purchased Sigma L3126
T2 sequence (P00591 1-450): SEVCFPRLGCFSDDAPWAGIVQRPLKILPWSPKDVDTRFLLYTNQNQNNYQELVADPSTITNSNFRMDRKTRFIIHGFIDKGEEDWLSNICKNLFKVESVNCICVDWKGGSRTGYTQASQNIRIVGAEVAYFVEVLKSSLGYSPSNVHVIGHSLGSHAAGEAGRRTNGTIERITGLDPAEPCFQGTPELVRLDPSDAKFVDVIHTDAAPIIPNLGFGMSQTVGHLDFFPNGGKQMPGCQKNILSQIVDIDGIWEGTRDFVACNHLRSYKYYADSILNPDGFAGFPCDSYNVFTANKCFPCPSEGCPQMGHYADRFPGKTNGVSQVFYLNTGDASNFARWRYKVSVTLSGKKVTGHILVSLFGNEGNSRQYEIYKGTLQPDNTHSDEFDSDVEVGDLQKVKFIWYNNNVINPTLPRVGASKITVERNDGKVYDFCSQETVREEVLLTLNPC

cannabinoid receptors = settings: cited from earlier work
MAGL [5] = target: T3, MAGL (Homo sapiens, UniProt Q99685); settings: cited from earlier work
T3 sequence (Q99685 1-303): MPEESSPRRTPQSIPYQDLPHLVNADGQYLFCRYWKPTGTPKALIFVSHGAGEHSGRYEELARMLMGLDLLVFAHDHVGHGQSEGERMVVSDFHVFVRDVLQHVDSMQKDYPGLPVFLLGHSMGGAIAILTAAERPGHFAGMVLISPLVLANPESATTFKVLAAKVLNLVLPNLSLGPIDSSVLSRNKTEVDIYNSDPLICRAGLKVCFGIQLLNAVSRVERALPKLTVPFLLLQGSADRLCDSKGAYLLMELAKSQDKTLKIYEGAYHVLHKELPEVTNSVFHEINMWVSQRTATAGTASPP

hDAGLα [6] = target: T1, hDAGLα; test: biochemical
mDAGLα = target: T4, mDAGLα (Mus musculus, UniProt Q6WQJ1); test: Radio-TLC assay with [14C]SAG substrate, mDAGLα; settings: read-out: mDAGLα inhibition at 10000 nM (%)
T4 sequence (Q6WQJ1 1-1044): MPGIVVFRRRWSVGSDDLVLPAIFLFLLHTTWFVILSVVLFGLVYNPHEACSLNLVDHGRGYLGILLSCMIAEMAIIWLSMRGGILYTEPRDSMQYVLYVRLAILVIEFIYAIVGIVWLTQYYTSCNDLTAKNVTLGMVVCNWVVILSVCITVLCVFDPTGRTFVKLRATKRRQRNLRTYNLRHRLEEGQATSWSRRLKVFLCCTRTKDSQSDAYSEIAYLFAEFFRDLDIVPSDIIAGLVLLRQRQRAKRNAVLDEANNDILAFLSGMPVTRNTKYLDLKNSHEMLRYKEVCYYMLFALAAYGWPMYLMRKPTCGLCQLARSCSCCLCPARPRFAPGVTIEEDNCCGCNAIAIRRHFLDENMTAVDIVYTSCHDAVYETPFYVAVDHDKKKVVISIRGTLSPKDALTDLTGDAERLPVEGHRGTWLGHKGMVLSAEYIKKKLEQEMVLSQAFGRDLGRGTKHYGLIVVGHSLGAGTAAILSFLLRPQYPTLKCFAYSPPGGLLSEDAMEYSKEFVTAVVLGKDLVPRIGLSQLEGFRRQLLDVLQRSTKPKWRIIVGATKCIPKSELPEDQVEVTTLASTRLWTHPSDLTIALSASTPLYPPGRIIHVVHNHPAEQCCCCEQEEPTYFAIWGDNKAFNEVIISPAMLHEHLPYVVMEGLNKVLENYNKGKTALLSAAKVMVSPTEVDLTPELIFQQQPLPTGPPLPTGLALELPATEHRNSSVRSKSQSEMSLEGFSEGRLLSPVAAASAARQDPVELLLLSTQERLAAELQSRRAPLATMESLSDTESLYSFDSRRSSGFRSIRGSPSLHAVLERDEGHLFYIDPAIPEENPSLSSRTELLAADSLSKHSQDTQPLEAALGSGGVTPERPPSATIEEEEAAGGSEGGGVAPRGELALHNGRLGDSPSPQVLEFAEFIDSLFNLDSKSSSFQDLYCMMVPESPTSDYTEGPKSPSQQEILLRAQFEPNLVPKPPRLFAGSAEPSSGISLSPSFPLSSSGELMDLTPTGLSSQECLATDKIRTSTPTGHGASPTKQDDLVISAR

MAGL [7] = target: T3, MAGL; test: hMAGL coumarin substrate fluorescence assay; type: biochemical; design: The N-terminal his-tagged full length human monoacylglycerol lipase used; His (N); made in house; host or cells: E. coli; settings: read-out: hMAGL inhibition at 10 μM (%)

## COC[C@@H](COC(=O)CCCc1ccc2ccc3cccc4ccc1c2c34)OC(=O)CCCCCNc1ccc([N+](=O)[O-])cc1[N+](=O)[O-] [Compound 18, 1-Pyrenebutanoyl-2-((2,4-dinitrophenyl)amino)hexanoyl-3-methyl-sn-glycerol]
[1]
  stability to uncatalyzed hydrolysis at neutral pH: stable
hDAGLα [2]
  quality as substrate for enzymatic hydrolysis: best enzyme substrates

## NC(=O)c1cccc(-c2cccc(OC(=O)NC3CCCCC3)c2)c1 [URB597]
[3]
  Lipoprotein Lipase (Bacterial) inhibition at 10 μM (%): 21%
[4]
  inhibition at 10 µM: 68%
Cannabinoid receptors
  binding to the cannabinoid receptors, previous reports: did not bind
MAGL [5]
  inhibition of MAGL activity reported in the literature: poor inhibitors
hDAGLα [6]; read-out: hDAGLα inhibition at 10 μM detergent free (%), FRET
  inhibition at 10 µM: 22%
hDAGLα [6]; read-out: hDAGLα inhibition at 10 μM detergent free (%), FRET, marker °
  inhibition at 10 µM: 7%
mDAGLα
  inhibition at 10 µM: < 0%
MAGL [7]
  inhibition at 10 µM: 18%

## COC[C@@H](COC(=O)CCCCCNc1ccc([N+](=O)[O-])cc1[N+](=O)[O-])OC(=O)CCCc1ccc2ccc3cccc4ccc1c2c34 [Compound 17, 1-((2,4-Dinitrophenyl)amino)hexanoyl-2-pyrenebutanoyl-3-methyl-sn-glycerol]
[1]
  stability to uncatalyzed hydrolysis at neutral pH: stable
hDAGLα [2]
  quality as substrate for enzymatic hydrolysis: best enzyme substrates
